Measurements as given in ChEMBL document CHEMBL5393444, “Sulfonamide derivatives as ctps1 inhibitors” (2022).
pIC50: −log10 of the molar value.

target: T1, CTP synthase 1 (Homo sapiens, UniProt P17812); experiment: Inhibition of C-terminal FLAG-His8-tagged full length human CTPS1 preincubated for 10 mins followed by substrate addition by ADP-Glo assay
T1 sequence (P17812 whole entry): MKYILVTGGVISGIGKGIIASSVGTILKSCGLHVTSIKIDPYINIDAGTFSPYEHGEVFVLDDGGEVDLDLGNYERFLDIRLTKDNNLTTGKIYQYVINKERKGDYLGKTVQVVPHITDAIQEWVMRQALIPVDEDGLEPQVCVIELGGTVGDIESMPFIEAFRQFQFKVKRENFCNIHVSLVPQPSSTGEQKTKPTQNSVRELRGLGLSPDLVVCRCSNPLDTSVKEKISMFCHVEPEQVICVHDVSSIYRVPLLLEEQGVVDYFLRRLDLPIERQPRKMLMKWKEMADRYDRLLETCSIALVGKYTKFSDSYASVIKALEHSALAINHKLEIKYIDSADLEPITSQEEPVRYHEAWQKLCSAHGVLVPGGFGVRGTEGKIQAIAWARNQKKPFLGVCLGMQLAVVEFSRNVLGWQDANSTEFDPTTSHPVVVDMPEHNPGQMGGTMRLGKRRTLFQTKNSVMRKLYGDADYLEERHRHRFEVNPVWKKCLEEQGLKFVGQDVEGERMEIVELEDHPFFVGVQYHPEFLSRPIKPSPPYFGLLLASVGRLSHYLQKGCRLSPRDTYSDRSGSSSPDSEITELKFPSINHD

Structure (SMILES) | pIC50
CCOc1cncc(-c2ccc(NC(=O)C3(c4ccnc(NS(=O)(=O)CC#N)n4)CCOCC3)nc2)n1 | ≥ 7.00
CCOc1cncc(-c2ccc(NC(=O)C3(c4ccnc(NS(=O)(=O)C5CC5)n4)CCCC3)nc2)n1 | ≥ 7.00
CCOc1cncc(-c2ccc(C(=O)NC(CC)c3ccnc(NS(=O)(=O)C4CC4)n3)c(F)c2)n1 (centres undefined) | ≥ 7.00
CCOc1cncc(-c2ccc(NC(=O)C(CCOC)c3ccnc(NS(=O)(=O)C4CC4)n3)nc2)n1 (centres undefined) | ≥ 7.00
CCOc1cncc(-c2ccc(NC(=O)C3(c4ccnc(NS(=O)(=O)C5CC5)n4)CC3)cc2)n1 | ≥ 7.00
CC(C)Oc1cncc(-c2ccc(NC(=O)C(C)(C)c3ccnc(NS(=O)(=O)C4CC4)n3)c(F)c2)n1 | ≥ 7.00
CCOc1cncc(-c2ccc(NC(=O)C(C)(C)c3cncc(NS(=O)(=O)C4CC4)n3)cc2)n1 | ≥ 7.00
CCOc1cncc(-c2ccc(NC(=O)C(C)(C)c3ccnc(NS(=O)(=O)C4CC4)n3)c(C#N)c2)n1 | ≥ 7.00
CC(C)Oc1cncc(-c2ccc(NC(=O)Cc3ccnc(NS(=O)(=O)C4CC4)n3)c(F)c2)n1 | ≥ 7.00
CCOc1cncc(-c2ccc(NC(=O)C3(c4ccnc(NS(=O)(=O)C5CC5)n4)CCCC3)cc2)n1 | ≥ 7.00
CCOc1cncc(-c2ccc(NC(=O)C(C)(C)c3ccnc(NS(=O)(=O)C4CC4)n3)c(F)c2)n1 | ≥ 7.00
CCC(C(=O)Nc1ccc(-c2cncc(OCC(F)(F)F)n2)cc1)c1ccnc(NS(=O)(=O)C2CC2)n1 (centres undefined) | ≥ 7.00
CCOc1cncc(-c2ccc(NC(=O)C3(c4ccnc(NS(=O)(=O)C5CC5)n4)CCC(F)(F)CC3)nc2)n1 | ≥ 7.00
CCOc1cncc(-c2ccc(NC(=O)C3(c4ccnc(NS(=O)(=O)C5CC5)n4)CCOCC3)c(F)c2)n1 | ≥ 7.00
CCOc1cncc(-c2ccc(NC(=O)C(CC)c3ccnc(NS(=O)(=O)C4CC4)n3)nc2)n1 (centres undefined) | ≥ 7.00
CC(C)Oc1cncc(-c2ccc(NC(=O)Cc3ccnc(NS(=O)(=O)C4CC4)n3)cc2)n1 | ≥ 7.00
CCOc1cncc(-c2ccc(NC(=O)C(C)(C)c3ccnc(NS(=O)(=O)C4CC4)n3)nc2)n1 | ≥ 7.00
CCOc1cncc(-c2ccc(NC(=O)Cc3ccnc(NS(=O)(=O)C4CC4)n3)cc2)n1 | ≥ 7.00
CCOc1cncc(-c2ccc(NC(=O)C(CC)c3ccnc(NS(=O)(=O)C4CC4)n3)cc2)n1 (centres undefined) | ≥ 7.00
CCOc1cncc(-c2ccc(NC(=O)C(OC)c3ccnc(NS(=O)(=O)C4CC4)n3)cc2)n1 (centres undefined) | ≥ 7.00

Structure (SMILES) | pIC50
CCOc1cncc(-c2ccc(NC(=O)C(CCOC)c3ccnc(NS(=O)(=O)C4CC4)n3)cc2)n1 (centres undefined) | ≥ 7.00
CCOc1cncc(-c2cnc(NC(=O)C(CC)c3ccnc(NS(=O)(=O)C4CC4)n3)c(F)c2)n1 (centres undefined) | ≥ 7.00
CCOc1cncc(-c2ccc(NC(=O)C3(c4ccnc(NS(=O)(=O)C5CC5)n4)CCOCC3)nc2)n1 | ≥ 7.00
CCC(C(=O)Nc1ccc(-c2cncc(OCC(F)(F)F)n2)cc1F)c1ccnc(NS(=O)(=O)C2CC2)n1 (centres undefined) | ≥ 7.00
CCOc1cncc(-c2ccc(NC(=O)C(CC)c3cncc(NS(=O)(=O)C4CC4)n3)cc2)n1 (centres undefined) | ≥ 7.00
CCOc1cncc(-c2ccc(NC(=O)C(CCOC)c3ccnc(NS(=O)(=O)C4CC4)n3)c(F)c2)n1 (centres undefined) | ≥ 7.00
CCOc1cncc(-c2cnc(NC(=O)C(CC)c3ccnc(NS(=O)(=O)C4CC4)n3)c(C)c2)n1 (centres undefined) | ≥ 7.00
CCOc1cncc(-c2ccc(NC(=O)C(CC)c3ccnc(NS(=O)(=O)C4CC4)n3)c(C)c2)n1 (centres undefined) | ≥ 7.00
CCC(C(=O)Nc1ccc(-c2cncc(OC(C)C)n2)cn1)c1ccnc(NS(=O)(=O)C2CC2)n1 (centres undefined) | ≥ 7.00
CCOc1cncc(-c2ccc(NC(=O)C(C)(C)c3cncc(NS(=O)(=O)C4CC4)n3)nc2)n1 | ≥ 7.00
CCOc1cncc(-c2ccc(NC(=O)C(F)(CC)c3ccnc(NS(C)(=O)=O)n3)nc2)n1 (centres undefined) | ≥ 7.00
CCOc1cncc(-c2ccc(NC(=O)C(C)(CCOC)c3cncc(NS(=O)(=O)C4CC4)n3)nc2)n1 (centres undefined) | ≥ 7.00
CCOc1cncc(-c2ccc(NC(=O)C3(c4ccnc(NS(=O)(=O)C5CC5)n4)CCN(S(C)(=O)=O)CC3)nc2)n1 | ≥ 7.00
CCC(C(=O)Nc1ccc(-c2cncc(C(F)(F)F)n2)cn1)c1ccnc(NS(=O)(=O)C2CC2)n1 (centres undefined) | ≥ 7.00
CCOc1cncc(-c2ccc(NC(=O)C3(c4ccnc(NS(=O)(=O)C5CC5)n4)CCC4(CC3)OCCO4)nc2)n1 | ≥ 7.00
CCOc1cncc(-c2ccc(NC(=O)C(CC)c3cncc(NS(=O)(=O)C4CC4)n3)nc2)n1 (centres undefined) | ≥ 7.00
CCOc1cncc(-c2ccc(NC(=O)C(C)(CC)c3ccnc(NS(=O)(=O)C4CC4)n3)nc2)n1 (centres undefined) | ≥ 7.00
CCOc1cncc(-c2ccc(C(=O)NCc3ccnc(NS(=O)(=O)C4CC4)n3)cc2)n1 | ≥ 7.00
CCC(C(=O)Nc1ccc(-c2cncc(OC)n2)cc1F)c1ccnc(NS(=O)(=O)C2CC2)n1 (centres undefined) | ≥ 7.00
CCOc1cncc(-c2ccc(NC(=O)C(CC)c3cccc(NS(=O)(=O)C4CC4)n3)nc2)n1 (centres undefined) | ≥ 7.00

organism: Homo sapiens; experiment: Selectivity ratio of IC50 for human CTPS2 to IC50 for human CTPS1 by RapidFire/MS analysis

Structure (SMILES) | Ratio IC50
CCOc1cncc(-c2ccc(NC(=O)C3(c4ccnc(NS(=O)(=O)CC#N)n4)CCOCC3)nc2)n1 | > 60
CCOc1cncc(-c2ccc(NC(=O)C3(c4ccnc(NS(=O)(=O)C5CC5)n4)CCCC3)nc2)n1 | > 60
CCOc1cncc(-c2ccc(C(=O)NC(CC)c3ccnc(NS(=O)(=O)C4CC4)n3)c(F)c2)n1 (centres undefined) | > 60
CCOc1cncc(-c2ccc(NC(=O)C(CCOC)c3ccnc(NS(=O)(=O)C4CC4)n3)nc2)n1 (centres undefined) | > 60
CCOc1cncc(-c2ccc(NC(=O)C3(c4ccnc(NS(=O)(=O)C5CC5)n4)CC3)cc2)n1 | > 60
CC(C)Oc1cncc(-c2ccc(NC(=O)C(C)(C)c3ccnc(NS(=O)(=O)C4CC4)n3)c(F)c2)n1 | 2
CCOc1cncc(-c2ccc(NC(=O)C(C)(C)c3cncc(NS(=O)(=O)C4CC4)n3)cc2)n1 | > 60
CCOc1cncc(-c2ccc(NC(=O)C(C)(C)c3ccnc(NS(=O)(=O)C4CC4)n3)c(C#N)c2)n1 | 2
CC(C)Oc1cncc(-c2ccc(NC(=O)Cc3ccnc(NS(=O)(=O)C4CC4)n3)c(F)c2)n1 | 30
CCOc1cncc(-c2ccc(NC(=O)C3(c4ccnc(NS(=O)(=O)C5CC5)n4)CCCC3)cc2)n1 | > 60
CCOc1cncc(-c2ccc(NC(=O)C(C)(C)c3ccnc(NS(=O)(=O)C4CC4)n3)c(F)c2)n1 | 2
CCC(C(=O)Nc1ccc(-c2cncc(OCC(F)(F)F)n2)cc1)c1ccnc(NS(=O)(=O)C2CC2)n1 (centres undefined) | > 60
CCOc1cncc(-c2ccc(NC(=O)C3(c4ccnc(NS(=O)(=O)C5CC5)n4)CCC(F)(F)CC3)nc2)n1 | > 60
CCOc1cncc(-c2ccc(NC(=O)C3(c4ccnc(NS(=O)(=O)C5CC5)n4)CCOCC3)c(F)c2)n1 | > 60
CCOc1cncc(-c2ccc(NC(=O)C(CC)c3ccnc(NS(=O)(=O)C4CC4)n3)nc2)n1 (centres undefined) | > 60
CC(C)Oc1cncc(-c2ccc(NC(=O)Cc3ccnc(NS(=O)(=O)C4CC4)n3)cc2)n1 | 30
CCOc1cncc(-c2ccc(NC(=O)C(C)(C)c3ccnc(NS(=O)(=O)C4CC4)n3)nc2)n1 | > 60
CCOc1cncc(-c2ccc(NC(=O)Cc3ccnc(NS(=O)(=O)C4CC4)n3)cc2)n1 | 30
CCOc1cncc(-c2ccc(NC(=O)C(CC)c3ccnc(NS(=O)(=O)C4CC4)n3)cc2)n1 (centres undefined) | 30
CCOc1cncc(-c2ccc(NC(=O)C(OC)c3ccnc(NS(=O)(=O)C4CC4)n3)cc2)n1 (centres undefined) | 2
CCOc1cncc(-c2ccc(NC(=O)C(CCOC)c3ccnc(NS(=O)(=O)C4CC4)n3)cc2)n1 (centres undefined) | 30
CCOc1cncc(-c2cnc(NC(=O)C(CC)c3ccnc(NS(=O)(=O)C4CC4)n3)c(F)c2)n1 (centres undefined) | 30
CCOc1cncc(-c2ccc(NC(=O)C3(c4ccnc(NS(=O)(=O)C5CC5)n4)CCOCC3)nc2)n1 | > 60
CCC(C(=O)Nc1ccc(-c2cncc(OCC(F)(F)F)n2)cc1F)c1ccnc(NS(=O)(=O)C2CC2)n1 (centres undefined) | > 60
CCOc1cncc(-c2ccc(NC(=O)C(CC)c3cncc(NS(=O)(=O)C4CC4)n3)cc2)n1 (centres undefined) | > 60
CCOc1cncc(-c2ccc(NC(=O)C(CCOC)c3ccnc(NS(=O)(=O)C4CC4)n3)c(F)c2)n1 (centres undefined) | > 60
CCOc1cncc(-c2cnc(NC(=O)C(CC)c3ccnc(NS(=O)(=O)C4CC4)n3)c(C)c2)n1 (centres undefined) | 2

Structure (SMILES) | Ratio IC50
CCOc1cncc(-c2ccc(NC(=O)C(CC)c3ccnc(NS(=O)(=O)C4CC4)n3)c(C)c2)n1 (centres undefined) | 2
CCC(C(=O)Nc1ccc(-c2cncc(OC(C)C)n2)cn1)c1ccnc(NS(=O)(=O)C2CC2)n1 (centres undefined) | > 60
CCOc1cncc(-c2ccc(NC(=O)C(C)(C)c3cncc(NS(=O)(=O)C4CC4)n3)nc2)n1 | > 60
CCOc1cncc(-c2ccc(NC(=O)C(F)(CC)c3ccnc(NS(C)(=O)=O)n3)nc2)n1 (centres undefined) | > 60
CCOc1cncc(-c2ccc(NC(=O)C(C)(CCOC)c3cncc(NS(=O)(=O)C4CC4)n3)nc2)n1 (centres undefined) | > 60
CCC(C(=O)Nc1ccc(-c2cncc(Cl)c2)cc1)c1ccnc(NS(=O)(=O)C2CC2)n1 (centres undefined) | 2
CCOc1cncc(-c2ccc(NC(=O)C3(c4ccnc(NS(=O)(=O)C5CC5)n4)CCN(S(C)(=O)=O)CC3)nc2)n1 | > 60
CCOc1cncc(-c2ccc(NC(=O)C3(c4ccnc(NS(=O)(=O)C5CC5)n4)CCC(O)CC3)nc2)n1 (stereo in doubt) | > 60
CCC(C(=O)Nc1ccc(-c2cncc(C(F)(F)F)n2)cn1)c1ccnc(NS(=O)(=O)C2CC2)n1 (centres undefined) | 30
CCOc1cncc(-c2ccc(NC(=O)C(C)(OC)c3cncc(NS(=O)(=O)C4CC4)n3)nc2)n1 (stereo in doubt; form 2) | 30
CCOc1cncc(-c2ccc(NC(=O)C3(c4ccnc(NS(=O)(=O)C5CC5)n4)CCC4(CC3)OCCO4)nc2)n1 | > 60
CCOc1cncc(-c2ccc(NC(=O)C(CC)c3cncc(NS(=O)(=O)C4CC4)n3)nc2)n1 (centres undefined) | > 60
CCOc1cncc(-c2ccc(NC(=O)C(F)(CC)c3cncc(NS(=O)(=O)C4CC4)n3)nc2)n1 (stereo in doubt; form 2) | > 60
CCOc1cncc(-c2ccc(NC(=O)C(F)(CC)c3ccnc(NS(=O)(=O)C4CC4)n3)nc2)n1 (stereo in doubt; form 3) | > 60
CCOc1cncc(-c2ccc(NC(=O)C(F)(CC)c3ccnc(NS(=O)(=O)C4CC4)n3)nc2)n1 (stereo in doubt; form 1) | 30
CCOc1cncc(-c2ccc(NC(=O)C3(c4ccnc(NS(=O)(=O)C5CC5)n4)CCC(O)CC3)nc2)n1 (single isomer, unassigned) | 2
CCOc1cncc(-c2ccc(NC(=O)C(CC)c3cccc(NS(=O)(=O)C4CC4)n3)cc2)n1 (centres undefined) | 30
CCOc1cncc(-c2ccc(NC(=O)C(C)(CC)c3ccnc(NS(=O)(=O)C4CC4)n3)nc2)n1 (centres undefined) | > 60
CCOc1cncc(-c2ccc(C(=O)NCc3ccnc(NS(=O)(=O)C4CC4)n3)cc2)n1 | > 60
CCC(C(=O)Nc1ccc(-c2cncc(OC)n2)cc1F)c1ccnc(NS(=O)(=O)C2CC2)n1 (centres undefined) | 2
CCOc1cncc(-c2ccc(NC(=O)C3(c4ccnc(NS(=O)(=O)N(C)C)n4)CCOCC3)nc2)n1 | > 60
CCOc1cncc(-c2ccc(NC(=O)C3(c4ccnc(NS(=O)(=O)C5CC5)n4)CCC(N(C)C)CC3)nc2)n1 (stereo in doubt; form 2) | > 60
CCOc1cncc(-c2ccc(NC(=O)C(CC)c3cccc(NS(=O)(=O)C4CC4)n3)nc2)n1 (centres undefined) | 30
CCOc1cncc(-c2ccc(NC(=O)C(C)(C)c3ccnc(NS(=O)(=O)CC)n3)cc2)n1 | 30
CCOc1cncc(-c2ccc(NC(=O)C(F)(CC)c3cncc(NS(=O)(=O)C4CC4)n3)nc2)n1 (stereo in doubt; form 1) | 30
CC(C)(C(=O)Nc1ccc(-c2cncc(C3CC3)n2)cc1F)c1ccnc(NS(=O)(=O)C2CC2)n1 | 2
CCOc1cncc(-c2ccc(NC(=O)C(F)(CC)c3ccnc(NS(=O)(=O)C4CC4)n3)nc2)n1 (stereo in doubt; form 2) | 2
